Test results taken from patent US20250236608A1, “EGFR INHIBITORS” (Blueprint Medicines Corporation, priority 2022, published 2025).

Legend:
[1] = target: EGFR L858R (Homo sapiens (Human), UniProt P00533, L858R); assay: Biochemical EGFR inhibition assay, EGFR L858R; conditions: Caliper mobility shift; 1.0 mM ATP or ATP Km; read-out: Enz EGFR_L858R IC50
[2] = target: EGFR (d746-750) (Homo sapiens (Human), UniProt P00533, DEL746-750); assay: Biochemical EGFR inhibition assay, EGFR (d746-750); conditions: Caliper mobility shift; 1.0 mM ATP or ATP Km; read-out: Enz EGFR_Exon19-del746-750 IC50
[3] = target: pEGFR (Tyr1068) in PC-9 cells (Ex19Del) (Homo sapiens (Human), UniProt P00533, DEL746-750); assay: PC-9 pEGFR AlphaLISA assay; assay type: cell-based; conditions: 4 hours incubation, p-EGFR (Tyr1068) AlphaLISA, read-out: Ext pEGFR_PC-9 Ex19Del IC50
How it was run: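 Phospho-EGFR (Tyr1068) was quantified by AlphaLISA SureFire Ultra in lysates of PC-9 cells exposed for 4 h to compound (4-fold, 10-point dilutions).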

Sequence of EGFR (d746-750) (P00533 other isoform, or with tags, fused parts or gaps del 1-694/del 746-750 limits assumed): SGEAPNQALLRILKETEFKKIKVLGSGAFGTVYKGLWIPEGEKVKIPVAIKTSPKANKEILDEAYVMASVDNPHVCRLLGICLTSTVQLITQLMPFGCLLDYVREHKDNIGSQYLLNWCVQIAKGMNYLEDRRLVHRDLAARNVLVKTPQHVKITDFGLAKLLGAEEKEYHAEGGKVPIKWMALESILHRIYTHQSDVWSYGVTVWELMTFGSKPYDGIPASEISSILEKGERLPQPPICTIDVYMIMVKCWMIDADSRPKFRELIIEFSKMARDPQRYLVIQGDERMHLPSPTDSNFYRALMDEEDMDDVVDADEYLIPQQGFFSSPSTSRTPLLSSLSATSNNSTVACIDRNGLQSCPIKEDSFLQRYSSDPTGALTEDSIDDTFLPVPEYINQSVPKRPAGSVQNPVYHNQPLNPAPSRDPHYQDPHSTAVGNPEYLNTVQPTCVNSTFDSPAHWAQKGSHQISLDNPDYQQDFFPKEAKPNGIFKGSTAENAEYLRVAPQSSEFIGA
Sequence of pEGFR (Tyr1068) in PC-9 cells (Ex19Del) (P00533 other isoform, or with tags, fused parts or gaps del 746-750): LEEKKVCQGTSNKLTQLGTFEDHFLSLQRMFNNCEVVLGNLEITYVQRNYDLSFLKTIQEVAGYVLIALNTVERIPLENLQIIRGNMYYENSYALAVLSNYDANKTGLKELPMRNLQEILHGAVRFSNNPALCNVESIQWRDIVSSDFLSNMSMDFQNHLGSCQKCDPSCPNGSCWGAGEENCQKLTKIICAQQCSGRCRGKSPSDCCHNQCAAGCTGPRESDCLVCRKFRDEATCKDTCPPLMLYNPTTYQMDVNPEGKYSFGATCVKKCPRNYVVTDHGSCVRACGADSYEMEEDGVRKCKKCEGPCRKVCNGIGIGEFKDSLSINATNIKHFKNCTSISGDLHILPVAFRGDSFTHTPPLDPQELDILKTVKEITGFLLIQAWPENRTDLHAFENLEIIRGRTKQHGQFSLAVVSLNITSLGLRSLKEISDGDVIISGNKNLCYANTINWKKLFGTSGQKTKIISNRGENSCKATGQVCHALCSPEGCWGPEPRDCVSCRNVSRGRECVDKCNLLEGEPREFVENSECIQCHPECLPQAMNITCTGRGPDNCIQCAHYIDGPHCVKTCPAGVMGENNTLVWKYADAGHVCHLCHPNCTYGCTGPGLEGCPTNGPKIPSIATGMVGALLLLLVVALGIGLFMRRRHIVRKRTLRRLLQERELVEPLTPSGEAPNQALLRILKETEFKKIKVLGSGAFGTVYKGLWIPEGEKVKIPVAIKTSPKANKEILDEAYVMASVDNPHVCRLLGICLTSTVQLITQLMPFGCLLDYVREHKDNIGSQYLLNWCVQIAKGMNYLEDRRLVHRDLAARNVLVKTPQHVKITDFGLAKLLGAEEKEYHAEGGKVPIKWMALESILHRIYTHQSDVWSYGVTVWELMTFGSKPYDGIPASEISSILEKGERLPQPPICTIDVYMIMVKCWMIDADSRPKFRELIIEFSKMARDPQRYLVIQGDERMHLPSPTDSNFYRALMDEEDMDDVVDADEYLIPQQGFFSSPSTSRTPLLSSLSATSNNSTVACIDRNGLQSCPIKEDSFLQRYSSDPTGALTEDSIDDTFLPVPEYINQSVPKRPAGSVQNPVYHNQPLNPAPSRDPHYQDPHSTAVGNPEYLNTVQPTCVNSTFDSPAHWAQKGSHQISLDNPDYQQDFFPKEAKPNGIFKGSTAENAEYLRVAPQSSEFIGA
Sequence of EGFR L858R (P00533 25-1210 L858R): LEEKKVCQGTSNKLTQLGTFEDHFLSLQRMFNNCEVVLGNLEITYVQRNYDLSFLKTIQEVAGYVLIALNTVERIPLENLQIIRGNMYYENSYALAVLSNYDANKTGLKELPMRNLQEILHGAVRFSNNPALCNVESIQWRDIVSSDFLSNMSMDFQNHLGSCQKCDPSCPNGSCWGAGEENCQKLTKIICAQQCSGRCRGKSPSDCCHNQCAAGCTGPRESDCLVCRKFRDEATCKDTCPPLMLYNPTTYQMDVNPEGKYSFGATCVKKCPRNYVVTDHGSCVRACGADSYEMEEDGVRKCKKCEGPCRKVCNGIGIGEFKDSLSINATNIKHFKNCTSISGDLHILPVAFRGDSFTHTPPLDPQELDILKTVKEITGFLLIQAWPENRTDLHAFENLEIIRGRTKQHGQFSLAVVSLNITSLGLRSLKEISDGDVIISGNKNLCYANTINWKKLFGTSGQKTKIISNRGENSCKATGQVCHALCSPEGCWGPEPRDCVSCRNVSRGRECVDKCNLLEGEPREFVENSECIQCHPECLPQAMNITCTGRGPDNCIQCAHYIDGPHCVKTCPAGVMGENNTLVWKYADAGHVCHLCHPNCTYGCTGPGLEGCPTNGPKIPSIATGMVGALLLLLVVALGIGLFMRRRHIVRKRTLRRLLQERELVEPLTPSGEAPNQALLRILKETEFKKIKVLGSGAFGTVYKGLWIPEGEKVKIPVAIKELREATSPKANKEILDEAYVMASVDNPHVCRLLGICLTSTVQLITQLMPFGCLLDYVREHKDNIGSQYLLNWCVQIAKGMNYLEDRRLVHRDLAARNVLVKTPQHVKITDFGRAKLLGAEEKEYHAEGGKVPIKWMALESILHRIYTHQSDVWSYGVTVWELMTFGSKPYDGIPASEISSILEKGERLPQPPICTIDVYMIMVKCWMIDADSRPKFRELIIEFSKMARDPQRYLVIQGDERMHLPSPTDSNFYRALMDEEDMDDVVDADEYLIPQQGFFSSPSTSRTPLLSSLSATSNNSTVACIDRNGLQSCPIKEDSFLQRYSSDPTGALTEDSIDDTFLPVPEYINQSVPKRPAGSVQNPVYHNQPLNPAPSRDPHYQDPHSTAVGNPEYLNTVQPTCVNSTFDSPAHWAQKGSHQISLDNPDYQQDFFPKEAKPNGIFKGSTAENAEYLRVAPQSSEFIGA

Row | IC50 [1] [nM] | IC50 [2] [nM] | IC50 [3] [nM] | SMILES
1 | 5.1 | 3 | 3.9 | COc1cc2ncnc(-c3cn(C)nc3-c3ccccc3)c2cc1NC(=O)C1(C)CCCO1 (stereo not drawn) [Example 224, N-(7-methoxy-4-(1-methyl-3-phenyl-1H-pyrazol-4-yl)quinazolin-6-yl)-2-methyltetrahydrofuran-2-carboxamide]
2 | 6 | 3.1 | 9.6 | COc1cc2ncnc(-c3cn(C)nc3-c3ccccc3)c2cc1OC(=O)N1CCOC(C)(C)C1 [Example 80, 7-methoxy-4-(1-methyl-3-phenyl-1H-pyrazol-4-yl)quinazolin-6-yl 2,2-dimethylmorpholine-4-carboxylate]
3 | 1.5 | 1 | 0.6 | COc1cc2ncnc(-c3cn(CC(F)F)nc3-c3ccccc3)c2cc1NC(=O)c1scnc1C [Example 273, N-(4-(1-(2,2-difluoroethyl)-3-phenyl-1H-pyrazol-4-yl)-7-methoxyquinazolin-6-yl)-4-methylthiazole-5-carboxamide]
4 | 2.6 | 1.4 | 2.6 | COc1cc2ncnc(-c3cn(CC(F)F)nc3-c3ccccc3)c2cc1C1(O)CCOCC1 [Example 127, 4-(4-(1-(2,2-difluoroethyl)-3-phenyl-1H-pyrazol-4-yl)-7-methoxyquinazolin-6-yl)tetrahydro-2H-pyran-4-ol]
5 | 1.3 | 0.8 | 5.4 | COc1cc2ncnc(-c3cn(C)nc3-c3ccccc3)c2cc1N [Preparation 190]
6 | 3.8 | 2.2 | 4 | COc1cc2ncnc(-c3cn(C)nc3-c3ccccc3)c2cc1NC(=O)N1CCN(C)[C@@H](C)[C@H]1C (single isomer, unassigned) [Example 180, (2R,3S)—N-(7-methoxy-4-(1-methyl-3-phenyl-1H-pyrazol-4-yl)quinazolin-6-yl)-2,3,4-trimethylpiperazine-1-carboxamide or (2S,3R)—N-(7-methoxy-4-(1-methyl-3-phenyl-1H-pyrazol-4-yl)quinazolin-6-yl)-2,3,4-trimethylpiperazine-1-carboxamide]
7 | 1.7 | 1 | 1.5 | COc1cc2ncnc(-c3cn(C)nc3-c3ccccc3)c2cc1NC(=O)c1c(F)cccc1F [Example 331, 2,6-difluoro-N-(7-methoxy-4-(1-methyl-3-phenyl-1H-pyrazol-4-yl)quinazolin-6-yl)benzamide]
8 | 1.1 | 0.8 | 1.5 | COc1cc2ncnc(-c3cn(C)nc3-c3ccccc3)c2cc1NC(=O)c1ccncc1Cl [Example 190, 3-chloro-N-(7-methoxy-4-(1-methyl-3-phenyl-1H-pyrazol-4-yl)quinazolin-6-yl)isonicotinamide]
9 | 2.8 | 1.1 | 1.3 | COc1cc2ncnc(-c3cn(C)nc3-c3ccc(F)cc3)c2nc1NC(=O)[C@@]12CN(C)C[C@@H]1C2(F)F (single isomer, unassigned) [Example 426, (1S,5R)-6,6-difluoro-N-(4-(3-(4-fluorophenyl)-1-methyl-1H-pyrazol-4-yl)-7-methoxypyrido[3,2-d]pyrimidin-6-yl)-3-methyl-3-azabicyclo[3.1.0]hexane-1-carboxamide or (1R,5S)-6,6-difluoro-N-(4-(3-(4-fluorophenyl)-1-methyl-1H-pyrazol-4-yl)-7-methoxypyrido[3,2-d]pyrimidin-6-yl)-3-methyl-3-azabicyclo[3.1.0]hexane-1-carboxamide]
10 | 1.2 | 0.7 | 0.9 | COc1cc2ncnc(-c3cn(C4CC4)nc3-c3ccccc3)c2nc1NC(=O)[C@@]12C[C@@H]1CN(C)C2 (single isomer, unassigned) [Example 406, (1S,5S)—N-(4-(1-cyclopropyl-3-phenyl-1H-pyrazol-4-yl)-7-methoxypyrido[3,2-d]pyrimidin-6-yl)-3-methyl-3-azabicyclo[3.1.0]hexane-1-carboxamide or (1R,5R)—N-(4-(1-cyclopropyl-3-phenyl-1H-pyrazol-4-yl)-7-methoxypyrido[3,2-d]pyrimidin-6-yl)-3-methyl-3-azabicyclo[3.1.0]hexane-1-carboxamide]
11 | 416 | 126 | 981 | Cn1cc(-c2ncnc3cc(C(F)(F)F)c(NC(=O)C45COCC4C5)nc23)c(-c2ccccc2)n1 (stereo not drawn) [Example 488, N-(4-(1-methyl-3-phenyl-1H-pyrazol-4-yl)-7-(trifluoromethyl)pyrido[3,2-d]pyrimidin-6-yl)-3-oxabicyclo[3.1.0]hexane-1-carboxamide]
12 | 0.8 | 0.4 | 0.3 | Cn1cc(-c2ccc3c(-c4c[nH]nc4-c4ccccc4F)ncnc3c2)cn1 [Example 443, 4-[3-(2-fluorophenyl)-1H-pyrazol-4-yl]-7-(1-methyl-1H-pyrazol-4-yl)quinazoline]
13 | 1.5 | 0.8 | 0.9 | COc1cc2ncnc(-c3cn(C)nc3-c3ccccc3)c2nc1NC(=O)[C@@]12CN(C)C[C@@H]1C2(F)F (single isomer, unassigned) [Example 417, (1S,5R)-6,6-difluoro-N-(7-methoxy-4-(1-methyl-3-phenyl-1H-pyrazol-4-yl)pyrido[3,2-d]pyrimidin-6-yl)-3-methyl-3-azabicyclo[3.1.0]hexane-1-carboxamide or (1R,5S)-6,6-difluoro-N-(7-methoxy-4-(1-methyl-3-phenyl-1H-pyrazol-4-yl)pyrido[3,2-d]pyrimidin-6-yl)-3-methyl-3-azabicyclo[3.1.0]hexane-1-carboxamide]
14 | 2.8 | 1 | 0.8 | COc1cc2ncnc(-c3cn(C)nc3-c3ccc(F)cc3)c2nc1NC(=O)[C@]12CN(C)C[C@H]1C2(F)F (single isomer, unassigned) [Example 425, (1R,5S)-6,6-difluoro-N-(4-(3-(4-fluorophenyl)-1-methyl-1H-pyrazol-4-yl)-7-methoxypyrido[3,2-d]pyrimidin-6-yl)-3-methyl-3-azabicyclo[3.1.0]hexane-1-carboxamide or (1S,5R)-6,6-difluoro-N-(4-(3-(4-fluorophenyl)-1-methyl-1H-pyrazol-4-yl)-7-methoxypyrido[3,2-d]pyrimidin-6-yl)-3-methyl-3-azabicyclo[3.1.0]hexane-1-carboxamide]
15 | 1.4 | 1.1 | 0.6 | CCOc1cc2ncnc(-c3cn(C)nc3-c3ccccc3)c2cc1NC(=O)C1CC1 [Example 306, N-(7-ethoxy-4-(1-methyl-3-phenyl-1H-pyrazol-4-yl)quinazolin-6-yl)cyclopropanecarboxamide]
16 | 2.4 | 1.7 | 2.5 | COc1cc2ncnc(-c3cn(C)nc3-c3ccccc3)c2cc1NC(=O)C[C@H]1CCCO1 [Example 280, (R)—N-(7-methoxy-4-(1-methyl-3-phenyl-1H-pyrazol-4-yl)quinazolin-6-yl)-2-(tetrahydrofuran-2-yl) acetamide]
17 | 1.1 | 0.7 | 1.8 | COc1cc2ncnc(-c3cn(C)nc3-c3ccccc3)c2cc1NC(=O)c1cnn(C(C)C)c1 [Example 208, 1-isopropyl-N-(7-methoxy-4-(1-methyl-3-phenyl-1H-pyrazol-4-yl)quinazolin-6-yl)-1H-pyazole-4-carboxamide]
18 | 4.3 | 1.1 | 2.7 | COc1cc2ncnc(-c3cn(C)nc3-c3ccccc3)c2cc1[C@H]1CN(C)CCO1 (single isomer, unassigned) [Example 129, (S)-2-(7-methoxy-4-(1-methyl-3-phenyl-1H-pyrazol-4-yl)quinazolin-6-yl)-4-methylmorpholine or (R)-2-(7-methoxy-4-(1-methyl-3-phenyl-1H-pyrazol-4-yl)quinazolin-6-yl)-4-methylmorpholine]
19 | 3.2 | 1.9 | 5.7 | COc1cc2ncnc(-c3cn(CC(F)F)nc3-c3ccccc3)c2cc1[C@H](C)O (single isomer, unassigned) [Example 101, (S)-1-(4-(1-(2,2-difluoroethyl)-3-phenyl-1H-pyrazol-4-yl)-7-methoxyquinazolin-6-yl)ethan-1-ol or (R)-1-(4-(1-(2,2-difluoroethyl)-3-phenyl-1H-pyrazol-4-yl)-7-methoxyquinazolin-6-yl)ethan-1-ol]
20 | 1.5 | 0.9 | 0.6 | COc1cc2ncnc(-c3cn(CC(F)F)nc3-c3ccccc3)c2cc1NC(=O)c1cnc(C)s1 [Example 274, N-(4-(1-(2,2-difluoroethyl)-3-phenyl-1H-pyrazol-4-yl)-7-methoxyquinazolin-6-yl)-2-methylthiazole-5-carboxamide]
21 | 2.8 | 1.3 | 6.1 | COc1cc2ncnc(-c3cn(C)nc3-c3ccccc3)c2cc1NC(=O)[C@@]12COC[C@@H]1C2 (single isomer, unassigned) [Example 261, (1R,5R)—N-(7-methoxy-4-(1-methyl-3-phenyl-1H-pyrazol-4-yl)quinazolin-6-yl)-5-methyl-3-oxabicyclo[3.1.0]hexane-1-carboxamide or (1S,5S)—N-(7-methoxy-4-(1-methyl-3-phenyl-1H-pyrazol-4-yl)quinazolin-6-yl)-3-oxabicyclo[3.1.0]hexane-1-carboxamide]
22 | 7 | 3 | 8.3 | COc1cc2ncnc(-c3cn(C)nc3-c3ccccc3)c2cc1-c1cccc2c1nc(CO)n2C [Example 148, (4-(7-methoxy-4-(1-methyl-3-phenyl-1H-pyrazol-4-yl)quinazolin-6-yl)-1-methyl-1H-benzo[d]imidazol-2-yl)methanol]
